Measured values: patent US12150935B1, “3-(3-(1,3-dioxoisoindolin-2-yl) propyl)-5-(4-fluorobenzylidene) thiazolidine-2,4-dione as a potential antitumor and apoptotic inducer” (IMAM MOHAMMAD IBN SAUD ISLAMIC UNIVERSITY, priority 2024, dated 2024)

Legend:
[1] = system: triple-negative breast cancer (MDA-MB-468); assay: Growth inhibition of cancerous cells, MDA-MB-468; type: cell-based; details: Homo sapiens, concentration of 100 μg/mL, in vitro, read-out: growth inhibition percentage
Protocol: (§1) The compound of Formula I was tested for its antitumor activity against various cancer cell lines, in vitro, in non-small cell lung cancer (A549), colorectal carcinoma (HCT116), prostate cancer (PC3), pharynx squamous carcinoma (FaDu), triple-negative breast cancer (MDA-MB-468), cervical cancer (HeLa), and human oral epithelial normal cell line (OEC).

[2] = system: human non-small cell lung cancer (A549); assay: Growth inhibition of cancerous cells, A549; type: cell-based; details: concentration of 100 μg/mL, in vitro, read-out: growth inhibition percentage
Protocol: as §1

[3] = system: colorectal carcinoma (HCT116); assay: Growth inhibition of cancerous cells, HCT116; type: cell-based; details: Homo sapiens, HCT-116, concentration of 100 μg/mL, in vitro, read-out: growth inhibition percentage
Protocol: as §1

[4] = system: prostate cancer (PC3); assay: Growth inhibition of cancerous cells, PC3; type: cell-based; details: Homo sapiens, concentration of 100 μg/mL, in vitro, read-out: growth inhibition percentage
Protocol: as §1

[5] = system: cervical cancer (HeLa); assay: Growth inhibition of cancerous cells, HeLa; type: cell-based; details: Homo sapiens, concentration of 100 μg/mL, in vitro, read-out: growth inhibition percentage
Protocol: as §1

[6] = system: human oral epithelial normal cell line (OEC); assay: Growth inhibition of normal cells, OEC; type: cell-based; details: 100 μg/mL, in vitro, read-out: growth inhibition percentage
Protocol: as §1

[7] = system: pharynx squamous carcinoma (FaDu); assay: Growth inhibition of cancerous cells, FaDu; type: cell-based; details: Homo sapiens, concentration of 100 μg/mL, in vitro, read-out: growth inhibition percentage
Protocol: as §1

melting point [°C] | SMILES | inhibition at 100 µg/mL [1] [%] | inhibition at 100 µg/mL [2] [%] | inhibition at 100 µg/mL [3] [%] | inhibition at 100 µg/mL [4] [%] | inhibition at 100 µg/mL [5] [%] | inhibition at 100 µg/mL [6] [%] | inhibition at 100 µg/mL [7] [%]
233 to 234 | O=C1S/C(=C/c2ccc(F)cc2)C(=O)N1CCCN1C(=O)c2ccccc2C1=O [Formula I, 3-(3-(1,3-Dioxoisoindolin-2-yl)propyl)-5-(4-fluorobenzylidene) thiazolidine-2,4-dione] | 87.8 | 79.1 | 79.3 | 84.3 | 73.1 | 61.2 | 86.8
 | COc1cccc2c1C(=O)c1c(O)c3c(c(O)c1C2=O)C[C@@](O)(C(=O)CO)C[C@@H]3O[C@H]1C[C@H](N)[C@H](O)[C@H](C)O1 [doxorubicin, reference compound] |  |  |  |  |  | 57.9 | 
